Results: ChEMBL document CHEMBL1949623, “Camphorsulfonic acid catalysed facile tandem double Friedlander annulation protocol for the synthesis of phenoxy linked bisquinoline derivatives and discovery of antitubercular agents” (Bioorg Med Chem Lett, 2012)
Converted amounts (≈) assume the structure as drawn.

System: Mycobacterium tuberculosis
Assay: Ratio of Ethambutol MIC to compound MIC for multi-drug-resistant Mycobacterium tuberculosis H37Rv clinical isolate
Assay type: functional
Conditions: not given

| SMILES | Ratio |
| --- | --- |
| Clc1ccc2nc(-c3ccc(Oc4c(-c5ccc(Br)cc5)nc5ccc(Cl)cc5c4-c4ccccc4)cc3)cc(-c3ccccc3)c2c1 | 3.45 |

System: Mycobacterium tuberculosis
Assay: Antitubercular activity against multi-drug-resistant Mycobacterium tuberculosis H37Rv clinical isolate after 28 days by 10 fold serial dilution method
Assay type: functional
Conditions: 672 h

| SMILES | MIC |
| --- | --- |
| Clc1ccc(-c2nc3ccc(Cl)cc3c(-c3ccccc3)c2Oc2ccc(-c3cc(-c4ccccc4)c4cc(Cl)ccc4n3)cc2)cc1 | 4.6 µM (≈ 3.13 µg/mL) |
| Clc1ccc2nc(-c3ccc(Oc4c(-c5cccc(Br)c5)nc5ccc(Cl)cc5c4-c4ccccc4)cc3)cc(-c3ccccc3)c2c1 | 1.1 µM (≈ 0.797 µg/mL) |
| Clc1cccc(-c2nc3ccccc3c(-c3ccccc3)c2Oc2ccc(-c3cc(-c4ccccc4)c4ccccc4n3)cc2)c1 | 20.5 µM (≈ 12.5 µg/mL) |
| Clc1ccc(-c2nc3ccccc3c(-c3ccccc3)c2Oc2ccc(-c3cc(-c4ccccc4)c4ccccc4n3)cc2)cc1 | 20.5 µM (≈ 12.5 µg/mL) |
| CC(=O)c1ccc(Oc2c(-c3cccc(Br)c3)nc3ccc(Cl)cc3c2-c2ccccc2)cc1 | 11.8 µM (≈ 6.24 µg/mL) |
| Clc1ccc2nc(-c3ccc(Oc4c(-c5ccc(Br)cc5)nc5ccc(Cl)cc5c4-c4ccccc4)cc3)cc(-c3ccccc3)c2c1 | 2.2 µM (≈ 1.59 µg/mL) |
| CC[C@@H](CO)NCCN[C@@H](CC)CO [ETHAMBUTOL] | 7.6 µM (≈ 1.55 µg/mL) |
| c1ccc(-c2cc(-c3ccc(Oc4c(-c5ccc6ccccc6c5)nc5ccccc5c4-c4ccccc4)cc3)nc3ccccc23)cc1 | 39.9 µM (≈ 25 µg/mL) |
| COc1cccc(-c2nc3ccccc3c(-c3ccccc3)c2Oc2ccc(-c3cc(-c4ccccc4)c4ccccc4n3)cc2)c1 | 41.2 µM (≈ 25 µg/mL) |
| CC(=O)c1ccc(Oc2c(-c3ccccc3)nc3ccc(Cl)cc3c2-c2ccccc2)cc1 | 55.6 µM (≈ 25 µg/mL) |
| NC(=O)c1cnccn1 [PYRAZINAMIDE] | 50.8 µM (≈ 6.25 µg/mL) |
| c1ccc(-c2cc(-c3ccc(Oc4c(-c5cccc6ccccc56)nc5ccccc5c4-c4ccccc4)cc3)nc3ccccc23)cc1 | 39.8 µM (≈ 24.9 µg/mL) |
| NNC(=O)c1ccncc1 [ISONIAZID] | 0.4 µM (≈ 0.0549 µg/mL) |
| Brc1cccc(-c2nc3ccccc3c(-c3ccccc3)c2Oc2ccc(-c3cc(-c4ccccc4)c4ccccc4n3)cc2)c1 | 4.7 µM (≈ 3.08 µg/mL) |
| CC(=O)c1ccc(Oc2c(-c3ccc(C)cc3)nc3ccc(Cl)cc3c2-c2ccccc2)cc1 | 53.8 µM (≈ 25 µg/mL) |
| CC(=O)c1ccc(Oc2c(-c3ccc(Br)cc3)nc3ccc(Cl)cc3c2-c2ccccc2)cc1 | 47.3 µM (≈ 25 µg/mL) |
| Clc1ccc2nc(-c3ccc(Oc4c(-c5ccc6ccccc6c5)nc5ccc(Cl)cc5c4-c4ccccc4)cc3)cc(-c3ccccc3)c2c1 | 35.9 µM (≈ 25 µg/mL) |
| Clc1ccc2nc(-c3ccc(Oc4c(-c5ccccc5)nc5ccc(Cl)cc5c4-c4ccccc4)cc3)cc(-c3ccccc3)c2c1 | 19.4 µM (≈ 12.5 µg/mL) |
| c1ccc(-c2nc3ccccc3c(-c3ccccc3)c2Oc2ccc(-c3cc(-c4ccccc4)c4ccccc4n3)cc2)cc1 | 43.4 µM (≈ 25 µg/mL) |
| COc1ccc(-c2nc3ccccc3c(-c3ccccc3)c2Oc2ccc(-c3cc(-c4ccccc4)c4ccccc4n3)cc2)cc1 | 41.2 µM (≈ 25 µg/mL) |
| CO[C@H]1/C=C/O[C@@]2(C)Oc3c(C)c(O)c4c(O)c(c(/C=N/N5CCN(C)CC5)c(O)c4c3C2=O)NC(=O)/C(C)=C\C=C\[C@H](C)[C@H](O)[C@@H](C)[C@@H](O)[C@@H](C)[C@H](OC(C)=O)[C@@H]1C [RIFAMPIN] | 0.1 µM (≈ 0.0823 µg/mL) |
| Cc1ccc(-c2nc3ccc(Cl)cc3c(-c3ccccc3)c2Oc2ccc(-c3cc(-c4ccccc4)c4cc(Cl)ccc4n3)cc2)cc1 | 37.9 µM (≈ 25 µg/mL) |
| c1ccc(-c2ccc(-c3nc4ccccc4c(-c4ccccc4)c3Oc3ccc(-c4cc(-c5ccccc5)c5ccccc5n4)cc3)cc2)cc1 | 19.1 µM (≈ 12.5 µg/mL) |
| CC(=O)c1ccc(Oc2c(-c3ccc4ccccc4c3)nc3ccc(Cl)cc3c2-c2ccccc2)cc1 | 50 µM (≈ 25 µg/mL) |
| CC(=O)c1ccc(Oc2c(-c3ccc(Cl)cc3)nc3ccc(Cl)cc3c2-c2ccccc2)cc1 | 51.6 µM (≈ 25 µg/mL) |
| Brc1ccc(-c2nc3ccccc3c(-c3ccccc3)c2Oc2ccc(-c3cc(-c4ccccc4)c4ccccc4n3)cc2)cc1 | 19.1 µM (≈ 12.5 µg/mL) |
| Cc1ccc(-c2nc3ccccc3c(-c3ccccc3)c2Oc2ccc(-c3cc(-c4ccccc4)c4ccccc4n3)cc2)cc1 | 42.3 µM (≈ 25 µg/mL) |

System: Mycobacterium tuberculosis
Assay: Ratio of Ciprofloxacin MIC to compound MIC for multi-drug-resistant Mycobacterium tuberculosis H37Rv clinical isolate
Assay type: functional
Conditions: not given

| SMILES | Ratio |
| --- | --- |
| Clc1ccc2nc(-c3ccc(Oc4c(-c5cccc(Br)c5)nc5ccc(Cl)cc5c4-c4ccccc4)cc3)cc(-c3ccccc3)c2c1 | 4.27 |
| Clc1ccc2nc(-c3ccc(Oc4c(-c5ccc(Br)cc5)nc5ccc(Cl)cc5c4-c4ccccc4)cc3)cc(-c3ccccc3)c2c1 | 2.14 |
